Measurements from patent US11919856B2, “Compounds” (UCL BUSINESS LTD, priority 2018, dated 2024).

Key:
[1] = test system: Z α1-antitrypsin polymer; conditions: 2 weeks of dosing; Hidvegi et al. Science 2010; cited from earlier work
[2] = target: T1, Z-alpha-1-antitrypsin (Z-A1AT) (Homo sapiens, UniProt P01009, E366K/V237A); assay: Inhibition of Z-alpha-1-antitrypsin polymerisation TR-FRET assay; assay type: biochemical; conditions: mean, 5 nM Z-A1AT, 72 hours at 37° C.
T1 construct: Z-alpha-1-antitrypsin was purified from human plasma; from tissue; host or cells: human plasma of ZZ homozygous donors
Description: The potencies of the compounds of the invention for inhibition of Z-alpha-1-antitrypsin (Z-A1AT) polymerisation can be determined by a time-resolved fluorescence energy transfer (TR-FRET) assay performed on purified Z-A1AT as described herein. […] Mean activity data for the assay described below for compounds 1-4:
Inhibition of Z-Alpha-1-Antitrypsin Polymerisation Assay Protocol
Z-alpha-1-antitrypsin was purified from human plasma of donors homozygous for the Z-A1AT form. The purification was performed according to a published protocol (Lomas et al. Biochemistry 1993; 32:500-508) involving ammonium sulphate precipitation, thiol exchange fractionation, and anion exchange fractionation.
Purified Z-A1AT was diluted to 5 nM in PBS buffer with 0.01% Tween-20 and mixed with different concentrations of inhibitor compounds dissolved in DMSO, in 384-well assay plates. Following incubation for 72 hours at 37° C., the amount of Z-A1AT polymer was detected using a time-resolved fluorescence resonance energy transfer (TR-FRET) assay format, by adding an antibody detection mix to the assay plates. The detection mix contained an A1AT-polymer specific monoclonal antibody (Miranda et al. Hepatology 2010; 52: 1078-1088), Terbium-labelled anti-mouse antibody, a polyclonal rabbit anti-A1AT antibody, and an Alexa488-labelled anti-rabbit antibody. TR-FRET data were normalised to controls (DMSO vehicle control giving 0% inhibition, saturating concentrations of an active compound giving 100% inhibition), and IC50 values were derived by fitting 4-parameter logistic curves to the normalised data.
An antibody-based time-resolved fluorescence resonance energy transfer (TR-FRET) assay was used to monitor the polymerisation of 5 nM Z α1-antitrypsin following incubation with varying concentrations of compounds at 37° C. for 72 hours. This assay used the 2C1 monoclonal antibody that is specific to pathological polymers of α1-antitrypsin (Miranda et al. Hepatology 2010; 52: 1078-1088), a polyclonal antibody that binds to all forms of α1-antitrypsin, an anti-mouse IgG fluorescence donor (Eu-W1024) and an anti-rabbit IgG acceptor (APC).

T1 sequence (P01009 25-418 V237A/E366K): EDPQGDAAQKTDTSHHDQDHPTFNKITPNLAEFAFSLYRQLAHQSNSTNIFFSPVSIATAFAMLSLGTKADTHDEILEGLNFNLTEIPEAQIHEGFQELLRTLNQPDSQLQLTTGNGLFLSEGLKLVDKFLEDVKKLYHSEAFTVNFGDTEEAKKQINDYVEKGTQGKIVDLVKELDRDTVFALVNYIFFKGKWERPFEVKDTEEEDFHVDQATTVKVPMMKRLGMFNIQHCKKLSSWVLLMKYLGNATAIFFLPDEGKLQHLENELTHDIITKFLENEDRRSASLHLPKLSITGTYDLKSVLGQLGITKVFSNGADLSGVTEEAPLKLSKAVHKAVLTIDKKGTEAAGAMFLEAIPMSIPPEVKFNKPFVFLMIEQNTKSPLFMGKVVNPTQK

## NC(=O)N1c2ccccc2C=Cc2ccccc21 [Carbamazapine]
[1]
  effects on liver polymer in Z α1-antitrypsin transgenic mice: pronounced effects

## CCC[C@@H](NC(=O)c1cccc2c1CC(=O)N2)[C@@H](O)c1cccc(Cl)c1C [Compound 2, N-((1S,2R)-1-(3-chloro-2-methylphenyl)-1-hydroxypentan-2-yl)-2-oxoindoline-4-carboxamide]
[2]
  IC50: 2.51 nM

## CCC[C@@H](NC(=O)c1ccc(F)c2c1CC(=O)N2)[C@@H](O)c1cccc(C#N)c1Cl [Compound 3, N-((1S,2R)-1-(2-chloro-3-cyanophenyl)-1-hydroxypentan-2-yl)-7-fluoro-2-oxoindoline-4-carboxamide]
[2]
  IC50: 3.16 nM

## CCC[C@@H](NC(=O)c1ccc(F)c2c1CC(=O)N2)[C@@H](O)c1cccc(F)c1Cl [Compound 4, N-((1S,2R)-1-(2-chloro-3-fluorophenyl)-1-hydroxypentan-2-yl)-7-fluoro-2-oxoindoline-4-carboxamide]
[2]
  IC50: 6.31 nM
